Measured values reported in ChEMBL document CHEMBL1140669, “Potent and selective CC-chemokine receptor-2 (CCR2) antagonists as a potential treatment for asthma” (Bioorg Med Chem Lett, 2007).

Key:
[1] = Aqueous solubility at pH 2; format: physicochemical
[2] = Aqueous solubility at pH 7; format: physicochemical
[3] = Metabolic stability in human liver microsomes after 1 hr; format: ADME, Microsome; details: read-out: Stability
[4] = […] bioavailability in ip dosed rat; format: ADME, organism-based; details: in vivo, intraperitoneal
[5] = […] bioavailability in sc dosed rat; format: ADME, organism-based; details: in vivo, subcutaneous

C[N+](C)(Cc1ccc(NC(=O)c2ccc(Cl)c(Cl)c2)cc1)C1CCOCC1 [JNJ-17166864 CATION]
solubility [1]: > 7000 µg/mL | solubility [2]: > 7000 µg/mL | remaining at 1 h [3]: 100% | bioavailability [4]: 74% | bioavailability [5]: 100%
